This is an account of results in patent US11702404B2, “GLP-1R modulating compounds” (priority 2019, dated 2023).

Data set [1] in a line: Microsomal stability, human liver microsomes (predicted hepatic clearance). Particulars: predicted from in vitro microsomal stability data.
The target in data set [2] is GLP-1R (Homo sapiens, UniProt P43220). Kind of data set: GLP-1R activation: cAMP increase in CHO cells stably expressing GLP-1R. The data set is classed as cell-based. Particulars: cAMP increase, CHO cells stably expressing GLP-1R, 10 point dose response, 30 minutes incubation; read-out: EC50.
GLP-1R, sequence (P43220 24-463): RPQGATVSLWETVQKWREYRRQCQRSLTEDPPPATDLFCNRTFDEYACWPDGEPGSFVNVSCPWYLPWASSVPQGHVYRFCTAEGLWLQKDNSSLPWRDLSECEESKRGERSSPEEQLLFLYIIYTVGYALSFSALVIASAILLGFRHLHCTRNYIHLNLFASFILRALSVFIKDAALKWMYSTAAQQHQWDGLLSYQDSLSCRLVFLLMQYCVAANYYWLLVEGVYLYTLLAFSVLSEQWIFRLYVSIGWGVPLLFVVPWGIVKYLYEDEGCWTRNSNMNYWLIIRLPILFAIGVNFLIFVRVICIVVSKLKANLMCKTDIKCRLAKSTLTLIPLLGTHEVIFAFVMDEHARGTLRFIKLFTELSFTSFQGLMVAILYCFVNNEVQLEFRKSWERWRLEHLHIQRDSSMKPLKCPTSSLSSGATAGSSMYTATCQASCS

With `COCCn1c(Cc2ccc(-c3cccc(OCc4ccc(C#N)cc4F)n3)cc2O)nc2ccc(C(=O)O)cc21` [Example 181, 2-(4-(6-((4-cyano-2-fluorobenzyl)oxy)pyridin-2-yl)-2-hydroxybenzyl)-1-(2-methoxyethyl)-1H-benzo[d]imidazole-6-carboxylic acid], the “Predicted Hepatic Clearance (Pred. Cl.)” value in data set [1] is 2.83 mL/min/kg. For the same molecule, the EC50 in data set [2] worked out at 15.5 nM.
In the same order, the values of `COCCn1c(Cc2ccc(-c3ccccc3OCc3ccc(C#N)cc3F)cc2F)nc2ccc(C(=O)O)cc21` [Example 182, 2-((2′-((4-cyano-2-fluorobenzyl)oxy)-3-fluoro-[1,1′-biphenyl]-4-yl)methyl)-1-(2-methoxyethyl)-1H-benzo[d]imidazole-carboxylic acid] are 7.67 mL/min/kg and 449 nM.
In the same order, the values of `COCCn1c(Cc2ccc(-c3cccc(OCc4ccc(C#N)cc4F)n3)cc2-c2ccccc2)nc2ccc(C(=O)O)cc21` [Example 184, 2-((5-(6-((4-cyano-2-fluorobenzyl)oxy)pyridin-2-yl)-[1,1′-biphenyl]-2-yl)methyl)-1-(2-methoxyethyl)-1H-benzo[d]imidazole-6-carboxylic acid] are <1.83 mL/min/kg and 369 nM.
For `COCCn1c(Cc2c(F)cc(-c3cccnc3OCc3ccccc3)cc2F)nc2ccc(C(=O)O)cc21` [Example 186, 2-(4-(2-(benzyloxy)pyridin-3-yl)-2,6-difluorobenzyl)-1-(2-methoxyethyl)-1H-benzo[d]imidazole-carboxylic acid], in data set [1], the “Predicted Hepatic Clearance (Pred. Cl.)” value is 11.5 mL/min/kg. In addition, in data set [2], the EC50 came to 812 nM.
In the same order, the values of `COCCn1c(Cc2ccc(-c3cccc(OCc4ccc(C#N)cc4F)n3)cc2-c2cccc([N+](=O)[O-])c2)nc2ccc(C(=O)O)cc21` [Example 187, 2-((5-(6-((4-cyano-2-fluorobenzyl)oxy)pyridin-2-yl)-3′-nitro-[1,1′-biphenyl]-2-yl)methyl)-1-(2-methoxyethyl)-1H-benzo[d]imidazole-6-carboxylic acid] are 14.8 mL/min/kg and 723 nM.
In the same order, the values of `COCCn1c(Cc2ccc(-c3cccc(OCc4ccc(C#N)cc4F)n3)cc2-c2cccc(OC)c2)nc2ccc(C(=O)O)cc21` [Example 188, 2-((5-(6-((4-cyano-2-fluorobenzyl)oxy)pyridin-2-yl)-3′-methoxy-[1,1′-biphenyl]-2-yl)methyl)-1-(2-methoxyethyl)-1H-benzo[d]imidazole-6-carboxylic acid] are 17.5 mL/min/kg and 36.9 nM.
Consider `COCCn1c(Cc2c(F)cc(-c3cncnc3OCc3ccc(C#N)cc3F)cc2F)nc2ccc(C(=O)O)cc21` [Example 189, 2-(4-(4-((4-cyano-2-fluorobenzyl)oxy)pyrimidin-5-yl)-2,6-difluorobenzyl)-1-(2-methoxyethyl)-1H-benzo[d]imidazole-carboxylic acid], for which, in data set [1], the “Predicted Hepatic Clearance (Pred. Cl.)” value was 8.5 mL/min/kg. Further, the EC50 in data set [2] came out at 3050 nM.
Turning to `COCCn1c(Cc2ccc(-c3cccc(OCc4ccc(C#N)cc4F)n3)cc2-c2cnn(C(F)F)c2)nc2ccc(C(=O)O)cc21` [Example 190, 2-(4-(6-((4-cyano-2-fluorobenzyl)oxy)pyridin-2-yl)-2-(1-(difluoromethyl)-1H-pyrazol-4-yl)benzyl)-1-(2-methoxyethyl)-1H-benzo[d]imidazole-6-carboxylic acid], in data set [1], the “Predicted Hepatic Clearance (Pred. Cl.)” value was 6.83 mL/min/kg. Also, the EC50 in data set [2] stood at 252 nM.
Turning to `COCCn1c(Cc2c(F)cc(-c3cccnc3OCc3ccccc3F)cc2F)nc2ccc(C(=O)O)cc21` [Example 192, 2-(2,6-difluoro-4-(2-((2-fluorobenzyl)oxy)pyridin-3-yl)benzyl)-1-(2-methoxyethyl)-1H-benzo[d]imidazole-carboxylic acid], the “Predicted Hepatic Clearance (Pred. Cl.)” value in data set [1] is 13 mL/min/kg. Also, the EC50 in data set [2] came to 437 nM.
In the same order, the values of `COCCn1c(Cc2ccc(-c3cccc(OCc4ccc(C#N)cc4F)n3)cc2-c2ccc(C#N)cc2)nc2ccc(C(=O)O)cc21` [Example 193, 2-((4′-cyano-5-(6-((4-cyano-2-fluorobenzyl)oxy)pyridin-2-yl)-[1,1′-biphenyl]-2-yl)methyl)-1-(2-methoxyethyl)-1H-benzo[d]imidazole-6-carboxylic acid] are 6.83 mL/min/kg and 131 nM.
In the same order, the values of `N#Cc1ccc(COc2cccc(-c3ccc(Cc4nc5ccc(C(=O)O)cc5n4C[C@@H]4CCCO4)c(F)c3)n2)c(F)c1` [Example 194, (S)-2-(4-(6-((4-cyano-2-fluorobenzyl)oxy)pyridin-2-yl)-2-fluorobenzyl)-1-((tetrahydrofuran-2-yl)methyl)-1H-benzo[d]imidazole-carboxylic acid] are 4.67 mL/min/kg and 0.86 nM.
As for `COCCn1c(Cc2ccc(-c3cccc(NCc4ccc(C#N)cc4OC)n3)cc2F)nc2ccc(C(=O)O)cc21` [Example 195], the “Predicted Hepatic Clearance (Pred. Cl.)” value in data set [1] was 9.5 mL/min/kg. Also, in data set [2], the EC50 is 15.8 nM.
In the same order, the values of `N#Cc1ccc(COc2cccc(-c3ccc(Cc4nc5ccc(C(=O)O)cc5n4C[C@H]4CCOC4)c(F)c3)n2)c(F)c1` [Example 196, (R)-2-(4-(6-((4-cyano-2-fluorobenzyl)oxy)pyridin-2-yl)-2-fluorobenzyl)-1-((tetrahydrofuran-3-yl)methyl)-1H-benzo[d]imidazole-carboxylic acid] are 5.83 mL/min/kg and 4.61 nM.
In the same order, the values of `N#Cc1ccc(COc2cccc(-c3ccc(Cc4nc5ccc(C(=O)O)cc5n4C[C@@H]4CCOC4)c(F)c3)n2)c(F)c1` [Example 197, (S)-2-(4-(6-((4-cyano-2-fluorobenzyl)oxy)pyridin-2-yl)-2-fluorobenzyl)-1-((tetrahydrofuran-3-yl)methyl)-1H-benzo[d]imidazole-carboxylic acid] are 6 mL/min/kg and 7.77 nM.
In the same order, the values of `N#Cc1ccc(COc2cccc(-c3ccc(Cc4nc5ccc(C(=O)O)cc5n4C[C@H]4CCCO4)c(F)c3)n2)c(F)c1` [Example 198, (R)-2-(4-(6-((4-cyano-2-fluorobenzyl)oxy)pyridin-2-yl)-2-fluorobenzyl)-1-((tetrahydrofuran-2-yl)methyl)-1H-benzo[d]imidazole-carboxylic acid] are 5.17 mL/min/kg and 8.69 nM.
For `N#Cc1ccc(COc2ncccc2-c2cc(F)c(Cc3nc4ccc(C(=O)O)cc4n3CC3(CF)CC3)c(F)c2)c(F)c1` [Example 199, 2-(4-(2-((4-cyano-2-fluorobenzyl)oxy)pyridin-3-yl)-2,6-difluorobenzyl)-1-((1-(fluoromethyl)cyclopropyl)methyl)-1H-benzo[d]imidazole-carboxylic acid], the “Predicted Hepatic Clearance (Pred. Cl.)” value in data set [1] was <1.83 mL/min/kg. In addition, in data set [2], the half-maximal effective concentration (EC50) was found to be 20.8 nM.
In the same order, the values of `COCCn1c(Cc2ccc(-c3cccc(OCc4ccc(C#N)cc4F)n3)cc2F)nc2ccc(C(=O)O)nc21` [Example 200, 2-(4-(6-((4-cyano-2-fluorobenzyl)oxy)pyridin-2-yl)-2-fluorobenzyl)-3-(2-methoxyethyl)-3H-imidazo[4,5-b]pyridine-5-carboxylic acid] are 2.83 mL/min/kg and 18 nM.
In the same order, the values of `COCCn1c(Cc2ccc(-c3cccc(OCc4ccc(C#N)cc4F)n3)cc2F)nc2cccc(C(=O)O)c21` [Example 201, 2-(4-(6-((4-cyano-2-fluorobenzyl)oxy)pyridin-2-yl)-2-fluorobenzyl)-1-(2-methoxyethyl)-1H-benzo[d]imidazole-7-carboxylic acid] are 3 mL/min/kg and 4420 nM.
As for `COCCn1c(Cc2cc(F)c(-c3nc(OCc4ccc(C#N)cc4F)ccc3F)cc2F)nc2ccc(C(=O)O)cc21` [Example 202, 2-(4-(6-((4-cyano-2-fluorobenzyl)oxy)-3-fluoropyridin-2-yl)-2,5-difluorobenzyl)-1-(2-methoxyethyl)-1H-benzo[d]imidazole-carboxylic acid], the “Predicted Hepatic Clearance (Pred. Cl.)” value in data set [1] is 5.25 mL/min/kg. In addition, the EC50 in data set [2] is 3.34 nM.
`N#Cc1ccc(COc2cccc(-c3ccc(Cc4nc5ccc(C(=O)O)cc5n4C4COC4)c(F)c3)n2)c(F)c1` [Example 203, 2-(4-(6-((4-cyano-2-fluorobenzyl)oxy)pyridin-2-yl)-2-fluorobenzyl)-1-(oxetan-3-yl)-1H-benzo[d]imidazole-6-carboxylic acid]: the “Predicted Hepatic Clearance (Pred. Cl.)” value in data set [1] is 4.83 mL/min/kg. For the same molecule, in data set [2], the EC50 worked out at 420 nM.
For the molecule `N#Cc1ccc(COc2cccc(-c3ccc(Cc4nc5ccc(C(=O)O)cc5n4[C@H]4CCOC4)c(F)c3)n2)c(F)c1` [Example 204, (S)-2-(4-(6-((4-cyano-2-fluorobenzyl)oxy)pyridin-2-yl)-2-fluorobenzyl)-1-(tetrahydrofuran-3-yl)-1H-benzo[d]imidazole-6-carboxylic acid], the “Predicted Hepatic Clearance (Pred. Cl.)” value in data set [1] was 5.33 mL/min/kg. For the same molecule, the 50% effective concentration (EC50) in data set [2] is 7.37 nM.
In the same order, the values of `N#Cc1ccc(COc2cccc(-c3cc(F)c(Cc4nc5cc(F)c(C(=O)O)cc5n4CC4(CF)CC4)cc3F)n2)c(F)c1` [Example 205, 2-(4-(6-((4-cyano-2-fluorobenzyl)oxy)pyridin-2-yl)-2,5-difluorobenzyl)-5-fluoro-1-((1-(fluoromethyl)cyclopropyl)methyl)-1H-benzo[d]imidazole-6-carboxylic acid] are 5 mL/min/kg and 3.23 nM.
In the same order, the values of `N#Cc1ccc(COc2cccc(-c3ccc(Cc4nc5cc(F)c(C(=O)O)cc5n4C[C@@H]4CCO4)c(F)c3)n2)c(F)c1` [Example 206] are 3.5 mL/min/kg and 0.86 nM.
Take `COCCn1c(Cc2ccc(-c3cccc(OCc4ccc(C#N)cc4F)n3)cc2F)nc2cc(F)c(C(=O)O)cc21` [Example 207, 2-(4-(6-((4-cyano-2-fluorobenzyl)oxy)pyridin-2-yl)-2-fluorobenzyl)-5-fluoro-1-(2-methoxyethyl)-1H-benzo[d]imidazole-6-carboxylic acid]: the “Predicted Hepatic Clearance (Pred. Cl.)” value in data set [1] was 6 mL/min/kg. Moreover, the concentration giving a half-maximal response (EC50) in data set [2] was 35.2 nM.
